# Measured values published in article PMC9562342, “Structural and functional analysis of EntV reveals a 12 amino acid fragment protective against fungal infections” (Nature Communications, 2022).
# Where “and” joins values, the source holds several entries; their conditions need not be identical. Equal entries are not always repeated. Entries after “also recorded” stand apart in the source; their conditions may differ. Where two headings read alike, the source gives them in different places. No end group written: not given here.
# Legend:
# [1] = Solubility of peptides (biophysical characteristics); format: physicochemical
# Description: Supplement 41467_2022_33613_MOESM1_ESM.docx, table 2: Supplementary Table 2. Biophysical characteristics of peptides. | column: Solubility
# C. albicans [2] = assay: C. elegans killing assay, C. albicans infection; settings: 1 nM peptide; for Median survival: C. albicans infected C. elegans
# Description: C. elegans glp-4(bn2); sek-1(km-4)[48] nematodes were propagated and maintained on E. coli strain OP50[50] that was seeded onto nematode growth medium (NGM) agar using standard techniques (Hope, 1999). To synchronize the animals, L1 stage worms on non-starved plates were washed off, filtered through a 10 μm filter (pluriSelect, pluriStrainer 10 μm), harvested by centrifugation at 750 xg for 30 seconds, transferred to OP50 seeded plates, and grown to the L4 stage. To prepare the infection plates, Fungal strains were grown in YPD broth for 24 h at 37 °C with agitation. 500 μl of the culture was plated onto BHI solid medium containing gentamycin (10 μg/ml) and grown for 24 h at 37 °C. The synchronized, L4 C. elegans were washed off the OP50 plates in 2 ml sterile M9 buffer and washed once, centrifuging at 750 xg for 30 seconds to collect animals. Animals were infected by placing them on the fungal lawn for 4 h at 25 °C. Following this exposure, they were washed off the plate and washed four times with 2 ml of sterile M9. The nematodes were then pipetted (~30 per well with two wells per condition for a total of ~60 worms assayed) into six-well plates with 2 ml of liquid medium (20% BHI broth and 80% M9) containing the indicated concentrations of test compounds. Plates were incubated at 25 °C, and worm death was scored daily. Kaplan–Meier survival curves were generated and analyzed as described in the quantification and statistical analysis section.
# C. albicans AzS = assay: C. elegans killing assay, C. albicans paired clinical isolate before fluconazole resistance (Az^S); format: in vivo, Candida albicans
# C. albicans AzR = format: in vivo, Candida albicans; settings: C. albicans AzR infected C. elegans, peptides 1 nM, fluconazole 4 ug/ml, Fig 4D
# [3] = system: C. neoformans strain 40-71; assay: C. elegans killing assay, C. neoformans infection; format: in vivo, Cryptococcus neoformans; settings: 1 nM peptide
# C. albicans [4] = assay: C. albicans adhesion assay (polystyrene plates, crystal violet); format: cell-based, Candida albicans; settings: for Adjusted avg / Avg Percent: Fig 3B, 10 nM, mean of 6 technical replicates; for Adjusted avg: background subtracted; for Avg Percent: relative adherence vs DMSO
# Description: Similar to the methodology in[51], C. albicans strains were grown in YPD broth for 18 h at 30 °C with agitation and then subcultured for 4 h in the same conditions. […] The cell suspension was incubated for 1 h at 30 °C with agitation. Then 100 µl of the cell suspension was added to wells of a 96 well tissue culture treated polystyrene plate (Falcon) in addition to 100 µl of artificial saliva media[14],[52] containing the indicated concentrations of test compounds. The plate was then incubated at 37 °C for 90 min.
# The adhered cell layer was then stained for 20 min with 40 µl of 0.08% crystal violet solution (diluted, Sigma). The crystal violet stain was removed, and the wells were then washed three times with sterile water. Adhered cells were then destained with 200 µl of 200 proof ethanol for 20 min, and 100 µl of the ethanol solution was transferred to a new well for analysis. The optical density at 595 nm (OD595) was measured using a Synergy H1 plate reader (BioTek) with Gen5 version 3.08 software (BioTek).
# RBCs = assay: Hemolysis assay; format: cell-based, human; settings: for fractional hemolysis (Toxicity): Extended Fig 6A
# Description: De-identified and pooled RBCs were purchased from Rockland Immunochemicals, Inc. RBCs were prepared at 6 × 10^7 cells/mL in PBS. To 25 μL of peptide diluted appropriately to result in a final concentration of 1 nM and 1 µM, 125 μL of RBC suspension was added. The plates were gently rocked for 1 h at room temperature. The cells were then removed from suspension by centrifugation at 1000 xg for 5 min. From the experimental plate, 100 μL of the supernatant was carefully withdrawn from each well and added to a new 96-well plate. The absorbance of the solutions in each well was measured at 410 nm and each well was compared to a no-treatment control and a 100% lysis control (1% SDS).
# [5] = Peptide serum stability assay; format: in vitro ADME, human
# Description: One mL of RPMI supplemented with 10% (v/v) of human serum (type AB) were aliquoted and temperature-equilibrated at 37 °C for 15 min before adding a concentrated stock peptide solution resulting in a final peptide concentration of 100 µM. For each time point, 100 µL of the reaction solution was removed and added to 200 µL 96% ethanol for precipitation of serum proteins. The sample was cooled (4 °C) for 15 min and then spun at 18,000 g for 2 min to pellet the precipitated serum proteins. The reaction supernatant was analyzed using HPLC with absorbance detected at 280 nm. The peptide peak was detected first without serum treatment to assess the area under the curve for the peptide of interest. At each time point the area under the curve was calculated by HPLC and then divided by the untreated peptide area under the curve to determine the percent remaining.
# C. albicans [6] = assay: Mouse OPC model, fungal burden in tongue by qPCR; format: in vivo
# C. albicans [7] = assay: Mouse OPC model, epithelial (hyphal) invasion by histology; format: in vivo
# C. albicans [8] = assay: Intravenous infection model (disseminated candidiasis); format: in vivo, mouse; settings: C. albicans pre-incubated with 100 nM peptide for two hours, IV injection, day 22
# C. albicans [9] = assay: Rat venous catheter model; format: in vivo; settings: rat jugular vein catheter, 20 nM, 24 h, n of three
# Description: To quantitate fungal burden after 24 h, the catheter was removed, and 1 cm of the tip placed in a one milliliter of sterile 0.9% NaCl followed by vortexing. A 1:10 serial dilution of this wash fluid was plated on SDA and colonies counted after 24 h of growth at 35 °C. […] Serial ethanol washes and critical point drying were used to dry the segments before they were mounted, and palladium-gold coated.
# C. albicans [10] = assay: C. albicans CFUs before and after two-hour pre-incubation with peptide; settings: 100 nM, two-hour incubation in PBS
# Description: To increase the chances of observing an effect, we pre-incubated C. albicans with 100 nM of EntV or the 12mer for two hours prior to intravenous (IV) injection of 1 ×10^5 CFU.
# The disseminated candidiasis model[59],[60] was performed by growing C. albicans SC5314 overnight in YPD at 30 °C, then diluting 1/100 and growing in a second overnight. The late-log phase culture was collected by centrifugation at 16,000 xg for 30 s, washed in PBS, and diluted to 5 × 10^6 cells/ml in PBS containing vehicle (0.01% DMSO) or 100 nM EntV or the 12mer peptide and incubated for 2 h at room temperature. Female ICR mice 6 wks, 18–20 g, 10/experimental group were inoculated via the lateral tail vein with 0.1 ml. Animals were monitored at least twice daily for 21 days for signs of moribundity.
# [11] = 10 nM and 1 nM in drinking water
compound,measurement,setting,value
TNVGALWICGLAVIQAAQLS [α7-random],Solubility,[1],10 µM +
same,Median survival,"C. albicans [2]; Fig 2C, trial 1",7 days
same,Median survival,"C. albicans [2]; Fig 2C, trial 2",7 days
"OC(Cn1cncn1)(Cn1cncn1)c1ccc(F)cc1F [Flu, fluconazole, reference compound]",Median survival,C. albicans AzS; in vivo,11 days and 10 days
same,Median survival,C. albicans AzR; trial 1,8 days
same,Median survival,C. albicans AzR; trial 2,6 days
TNAAAAQQGGIICLLVVWLS [α7-disrupted],Solubility,[1],10 µM +
same,Median survival,"C. albicans [2]; Fig 2C, trial 1",6 days
same,Median survival,"C. albicans [2]; Fig 2C, trial 2",6 days
VAGQLALWAVQC [12aa],Protection of C. elegans infected with C. neoformans (in words),[3],protected C. neoformans infected worms from killing
same,Median survival,"C. albicans AzS; C. albicans AzS infected C. elegans, peptides 1 nM, fluconazole 4 ug/ml, Fig 4C, trial 1",12 days
same,Median survival,"C. albicans AzS; C. albicans AzS infected C. elegans, peptides 1 nM, fluconazole 4 ug/ml, Fig 4C, trial 2",10.5 days
same,Median survival,C. albicans AzR; trial 1,10 days
same,Median survival,C. albicans AzR; trial 2,11 days
same,Inhibition of C. albicans adhesion to polystyrene (in words),"C. albicans [4]; 1 h with peptide in PBS, then artificial saliva media 90 min, crystal violet",as effective in protecting against C. albicans infection in the worm model and inhibiting surface adhesion as full-length EntV
same,Adjusted avg,C. albicans [4]; biological replicate 1,0.262
same,Avg Percent,C. albicans [4]; biological replicate 1,40.07%
same,Adjusted avg,C. albicans [4]; biological replicate 2,0.408
same,Avg Percent,C. albicans [4]; biological replicate 2,48.28%
same,Adjusted avg,C. albicans [4]; biological replicate 3,0.161
same,Avg Percent,C. albicans [4]; biological replicate 3,13.25%
same,Adjusted avg,C. albicans [4]; biological replicate 4,0.232
same,Avg Percent,C. albicans [4]; biological replicate 4,27.81%
same,Lysis of red blood cells (in words),"RBCs; 1 nM and 1 µM peptide, 6 x 10^7 RBC cells/mL in PBS, 1 h room temperature, absorbance 410 nm, n of 6, listed as 12mer",no lysis of red blood cells; also recorded: no toxicity
same,fractional hemolysis (Toxicity),"RBCs; 1nM, replicate 1",0.01086
same,fractional hemolysis (Toxicity),"RBCs; 1nM, replicate 2",0.03086
same,fractional hemolysis (Toxicity),"RBCs; 1nM, replicate 3",0.01386
same,fractional hemolysis (Toxicity),"RBCs; 1nM, replicate 4",0.05786
same,fractional hemolysis (Toxicity),"RBCs; 1uM, replicate 1",0.04886
same,fractional hemolysis (Toxicity),"RBCs; 1uM, replicate 2",0.05786
same,fractional hemolysis (Toxicity),"RBCs; 1uM, replicate 3",0.03286
same,fractional hemolysis (Toxicity),"RBCs; 1uM, replicate 4",0.08286
same,stability in the presence of 10% human serum,"[5]; 10% human serum, 0 Hrs, fraction relative to 0 Hrs, mean (SD) of n = 3",1.0 (0.0)
same,remaining at 2 h,"[5]; 10% human serum, 2 Hrs, fraction relative to 0 Hrs, mean (SD) of n = 3, read-out: stability in the presence of 10% human serum",44.3%
same,remaining at 4 h,"[5]; 10% human serum, 4 Hrs, fraction relative to 0 Hrs, mean (SD) of n = 3, read-out: stability in the presence of 10% human serum",39.3%
same,remaining at 24 h,"[5]; 10% human serum, 24 Hrs, fraction relative to 0 Hrs, mean (SD) of n = 3, read-out: stability in the presence of 10% human serum",12.4%
same,Peptide detectable (percent remaining) in serum,"[5]; RPMI with 10% (v/v) human serum (type AB), 37 °C, 100 µM peptide, 24-hour incubation, HPLC 280 nm, mean of n of 3",about 10%
same,Stability in serum (in words),"[5]; RPMI with 10% (v/v) human serum (type AB), 37 °C, 100 µM peptide, HPLC 280 nm, n of 3",not particularly stable in serum
same,Fungal burden on the tongue (in words),C. albicans [6]; [11],only a slight reduction in fungal burden on the tongue
same,Fungal burden in the tongue (in words),"C. albicans [6]; 50 nM in drinking water, day 5",loss of efficacy in terms of fungal burden
same,"Fungal burden in the tongue, established infection (in words)","C. albicans [6]; 100 nM in drinking water starting at day three, sacrificed on day five",significantly less fungal burden compared to both groups of untreated animals
same,"Fungal burden in the tongue, C. albicans DNA by qPCR (in words)","C. albicans [6]; corticosteroid-suppressed mice, 100 nM in drinking water from inoculation, day 5, listed as 12mer",equally effective; also recorded: even more effective at reducing fungal burden than 4 µg/mL fluconazole
same,Invasion of the tongue epithelium (in words),C. albicans [7]; [11],the reduction in invasion remained dramatic
same,Hyphal invasion of the tongue (in words),"C. albicans [7]; 50 nM in drinking water, day 5",significant lowering of hyphal invasion
same,Hyphal invasion relative to fluconazole (in words),"C. albicans [7]; 100 nM and 500 nM in drinking water versus 4 µg/mL fluconazole, day 5",slightly less prevalent
same,Epithelial / hyphal invasion of the tongue (in words),"C. albicans [7]; mouse, in vivo, listed as 12mer",at least as effective as the full length EntV; also recorded: most reduced
same,Survival of mice at end of experiment (in words),C. albicans [8],about half the animals were still alive
same,Reduction of catheter fungal burden,C. albicans [9],1.5 logs
same,Solubility,"[1]; Supplementary Table 2, printed as '10 µM +'",10 µM +
same,Protection of C. elegans against C. albicans infection (in words),C. albicans [2],as effective in protecting against C. albicans infection in the worm model and inhibiting surface adhesion as full-length EntV
same,Median survival,"C. albicans [2]; Fig 3A, trial 1",10.5 days
same,Median survival,"C. albicans [2]; Fig 3A, trial 2",10 days
same,Median survival,"C. albicans [2]; Fig 3A, trial 3",9.5 days
same,Median survival,"C. albicans [2]; Fig 3E, trial 1",11 days
same,Median survival,"C. albicans [2]; Fig 3E, trial 2",10 days
same,Median survival,"C. albicans [2]; Fig 3E, trial 3",10 days
same,C. albicans CFUs before versus after incubation with peptide (in words),C. albicans [10],no significant difference
